Experimental data: patent publication US4843087A (priority 1986, dated 1989)
In brackets after ≈: the same amount, converted by molar mass.

Assays:
[1] = system: Polio 2; assay: microbe, parasite or virus in culture; type: cell-based, poliovirus; settings: Enterovirus C, HeLa, read-out: Polio 2 MIC
[2] = system: human rhinovirus (HRV) serotypes; assay: microbe, parasite or virus in culture; type: cell-based; settings: for MIC50: read-out: Rhinovirus MIC50; for IC (MIC80 of serotype panel): read-out: Rhinovirus MIC80

| SMILES | MIC [1] [µg/mL] | MIC50 [2] [µg/mL] | IC (MIC80 of serotype panel) [2] [µg/mL] |
| --- | --- | --- | --- |
| CC(=O)c1cc(C2=NCCO2)ccc1OCCCCCc1cc(C)no1 [Example 63, 5-{5-[4-(4,5-Dihydro-2-oxazolyl)-2-acetylphenoxy]pentyl}-3-methylisoxazole] | 2.3 (≈ 6.45 µM) | 0.55 (≈ 1.54 µM) | 1.05 |
| Cc1cc(CCCCCOc2ccc(C3=NCCO3)c(O)c2C)on1 [Example 80, 5-{5-[4-(4,5-Dihydro-2-oxazolyl)-3-hydroxy-2-methylphenoxy]pentyl}-3-methylisoxazole] | 0.11 (≈ 0.319 µM) | 0.13 (≈ 0.377 µM) | 0.27 |
| Cc1cc(CCCCCOc2ccc(C3=NCCO3)c(C)c2C)on1 [Example 79, 5-{5-[4-(4,5-Dihydro-2-oxazolyl)-2,3-dimethylphenoxy]pentyl}-3-methylisoxazole] | 2.3 (≈ 6.72 µM) | 0.3 (≈ 0.876 µM) | 0.7 |
| Cc1cc(CCCCCOc2ccc(-c3nc(C)c(C)o3)cc2C)on1 [Example 90, 5-{5-[4-(4,5-Dimethyl-2-oxazolyl)-2-methylphenoxy]pentyl}-3-methylisoxazole] | 1.5 (≈ 4.23 µM) | 0.2 (≈ 0.564 µM) | 0.49 |
| Cc1cc(CCCCCOc2ccc(C3=NCCO3)cc2N(C)C)on1 [Example 100, 5-{5-[4-(4,5-Dihydro-2-oxazolyl)-2-(dimethylamino)phenoxy]pentyl}-3-methylisoxazole] | 6.2 (≈ 17.3 µM) | 0.76 (≈ 2.13 µM) | 99 |
| OCc1cc(CCCCCCCOc2ccc(C3=NCCO3)cc2)on1 [Example 11, 5-{7-[4-(4,5-Dihydro-2-oxazolyl)phenoxy]heptyl}-3-isoxazolemethanol] | 0.02 (≈ 0.0558 µM) |  |  |
| Cc1cc(CCCCCOc2c(Cl)cc(C3=NCCO3)cc2[N+](=O)[O-])on1 [153(d), 5-{5-[2-Chloro-4-(4,5-dihydro-2-oxazolyl)-6-nitrophenoxy]pentyl}-3-methylisoxazole] | 0.4 (≈ 1.02 µM) | 0.09 (≈ 0.229 µM) | 0.18 |
| Cc1cc(CCCCCOc2ccc(-c3ncco3)cc2)on1 [Example 88, 3-Methyl-5-{5-[4-(2-oxazolyl)phenoxy]pentyl}isoxazole] | 0.025 (≈ 0.08 µM) | 0.38 (≈ 1.22 µM) | 25.2 |
| Cc1cc(CCCCCOc2ccc(C3=NC(C)CO3)cc2)on1 (stereo not drawn) [Example 56, 5-{5-[4-(4,5-Dihydro-4-methyl-2-oxazolyl)phenoxy]pentyl}-3-methylisoxazole] | 0.07 (≈ 0.213 µM) | 0.164 (≈ 0.499 µM) | 25.3 |
| Cc1cc(CCCCCCCOc2ccc(C3=NCCO3)cc2C=O)on1 [Example 69, 5-{7-[4-(4,5-Dihydro-2-oxazolyl)-2-formylphenoxy]heptyl}-3-methylisoxazole] | 0.44 (≈ 1.19 µM) |  |  |
| Cc1cc(CCCCCOc2ccc(C3=NCCO3)cc2F)on1 [Example 20, 5-{5-[4-(4,5-Dihydro-2-oxazolyl)-2-fluorophenoxy]pentyl}-3-methylisoxazole] | 0.1 (≈ 0.301 µM) | 0.38 (≈ 1.14 µM) | 26.9 |
| Cc1cc(CCCCCCCOc2ccc(-c3ncco3)cc2)on1 [87(b), 3-Methyl-5-{7-[4-(2-oxazolyl)phenoxy]heptyl}isoxazole] | 0.04 (≈ 0.118 µM) |  |  |
| Cc1cc(C(O)CCCCCCOc2ccc(C3=NCCO3)cc2)on1 (stereo not drawn) [Example 12, α-{6-[4-(4,5-dihydro-2-oxazolyl)phenoxy]hexyl}-3-methyl-5-isoxazolemethanol] | 0.08 (≈ 0.223 µM) |  |  |
| Cc1cc(CCCCCOc2cccc(C3=NCCO3)c2)on1 [Example 30, 5-{5-[3-(4,5-Dihydro-2-oxazolyl)phenoxy]pentyl}-3-methylisoxazole] | > 0.2 |  |  |
| Cc1cc(CCC2CCC(COc3ccc(C4=NCCO4)cc3)CC2)on1 (stereo not drawn) [101 (b), 5-{2-[4-[[4-(4,5-Dihydro-2-oxazolyl)phenoxy]methyl]cyclohexyl]ethyl}-3-methylisoxazole] | 0.65 (≈ 1.76 µM) |  |  |
| Cc1cc(CCCOCOCCOc2ccc(C3=NCCO3)cc2)on1 [Example 73, 5-{3-[[2-[4-(4,5-Dihydro-2-oxazolyl)phenoxy]ethoxy]methoxy]propyl}-3-methylisoxazole] | 0.46 (≈ 1.28 µM) |  |  |
| Cc1cc(CCCCCCCOc2ccc(C3=NC[C@@H](C)O3)cc2)on1 [Example 123, (R)-5-{7-[4-(4,5-Dihydro-5-methyl-2-oxazolyl)phenoxy]heptyl}-3-methylisoxazole] | 1.01 (≈ 2.83 µM) |  |  |
| Cc1cc(CCCCOc2ccc(C3=NCCO3)cc2)on1 [21 (b), 5-{4-[4-(4,5-Dihydro-2-oxazolyl)phenoxy]butyl}-3-methylisoxazole] | 0.5 (≈ 1.66 µM) |  |  |
| Cc1cc(CCCCCOc2ccc(C3=NCCO3)cc2Cl)no1 [Example 37, 3-{5-[2-Chloro-4-(4,5-dihydro-2-oxazolyl)phenoxy]pentyl}-5-methylisoxazole] | 0.4 (≈ 1.15 µM) |  |  |
| Cc1cc(CCCCOc2ccc(C3=NC(C)CO3)cc2Cl)on1 (stereo not drawn) [Example 65, 5-{4-[2-Chloro-4-(4,5-dihydro-4-methyl-2-oxazolyl)phenoxy]butyl}-3-methylisoxazole] |  | 0.26 (≈ 0.745 µM) | 0.45 |
